In test [1] the target is T1, protein-farnesyl transferase (PFT) (Rattus norvegicus, UniProt Q02293+Q04631).
T1 construct: soluble fraction of rat's brain; from tissue; host or cells: rat brain, soluble fraction, 30%-50% ammonium sulfate cut, Q-Sepharose fraction
Description: Inhibitory activities against protein-farnesyl transferase (PFT). In kind it is biochemical. The note with it: PFT from rat brain; prenyl acceptor H-ras protein or biotin-added Lys-Thr-Ser-Cys-Val-Ile-Met; 37° C., 20 minutes; read-out: 50% inhibitory concentrations against PFT activities, IC50.

In test [2] the test system is farnesyl-modification of Ras protein in NIH3T3 cells transformed by activated ras gene. Briefly: Inhibitory activities against farnesyl-modification of Ras protein in NIH3T3 cells transformed by activated ras gene. The note with it: Mus musculus, 24 hours, read-out: 50% inhibitory concentrations against farnesyl-modification of Ras protein, IC50. Format: cell-based. Here is the method: Using the compounds of the present invention, inhibitory activities against farnesyl-modification of Ras protein in NIH3T3 cells transformed by activated ras gene, were measured.
The NIH3T3 cells transformed by activated ras gene, were seeded on a culture plate and cultured for 3 days. Then, a compound of the preset invention in a predetermined concentration was added to the culture. In accordance with the method disclosed in J. Biol. Chem., vol. […] The cell extract was subjected to SDS polyacrylamide gel electrophoresis to separate farnesyl-modified Ras protein and non-farnesyl-modified Ras protein. The protein on the gel was transferred onto a nitrocellulose membrane, and an anti-Ras protein antibody was reacted as a probe (primary antibody reaction). An anti-primary antibody, a peroxidase inclusion (secondary antibody), was reacted, and then Ras protein was detected by a chemical fluorescence enhancing kit. The proportion of non-farnesyl-modified Ras protein was quantified by a densitometer and taken as the inhibitory activity.

The subject of test [3] is NIH3T3 Cells Transformed by Activated Ras Gene (NIH/ras). Description: Antitumor effect against NIH/ras cells in nude mice, intraperitoneal (tumor weight). In kind it is in vivo, nude mouse. The note with it: for Growth inhibition (tumor weight): once a day days 1-6, day 7; for Weight of tumor, Average ± standard deviation: once a day days 1-6, weighed day 7. From the text: Pharmacological Test Example 3 (Therapeutic Effects to NIH3T3 Cells Transformed by Activated Ras Gene (NIH/ras))
(§1) ^1) Tumor inoculation: 10^6 cells were inoculated subcutaneously
(§2) to a female nude mouse.
^2) Dose: Each dose was intraperitonealy administered once a day from
the first day to the sixth day after the inoculation of the cells,.
^3) Weight of tumor: On the seventh day after inoculation of the
cells, the tumors were weighed.
^4) Growth inhibition: (1(average weight of tumor of the treated
group/average weight of tumor of the control group)) × 100
* and **: Statistical analyses by utest are 5% and 1%, respectively.

Test [4] shares this test system. Briefly: Antitumor effect against NIH/ras cells in nude mice, subcutaneous (tumor volume). Format: in vivo, nude mouse. The conditions noted are these: for Growth inhibition (tumor volume): once a day days 1-10, day 8; for Volume of tumor, Average ± standard deviation: once a day days 1-10, measured day 8, ** 1% (u test). Here is the method:
as §1, §2
^2 Dose: Each dose was subcutaneously administered once a day from th
first day to the tenth day after the inoculation of the cells.
^3) Volume of tumor: On the eighth day after inoculation of the cells
volume of the tumors were measured.
^4) Growth inhibition: (1(average volume of tumor of the treated
group/average volume of tumor of the control group)) × 100

Setting [5] is: 10 mg/kg/injection subcutaneous.
Setting [6] is: 20 mg/kg/injection subcutaneous.
[7] abbreviates: 40 mg/kg/injection subcutaneous.

In the case of `C[C@H]([C@H](CCc1ccccc1)c1ccc(Oc2ccccc2)cc1)N(CC(=O)O)C(=O)[C@@H]1OC(C(=O)O)(C(=O)O)O[C@@H]1C(=O)O` (relative stereo) [Example 23 (4R*, 5S*)-isomer, (4R*,5S*)-4-[N-(carboxymethyl)-N-{(1R,2R)-1-methyl-2-(4-phenoxyphenyl)-4-phenylbutyl}carbamoyl]-1,3-dioxolane-2,2,5-tricarboxylic acid], the IC50 in test [1] came to 0.085 nM; in test [2], 2100 nM.
The matching figures for `C[C@H]([C@H](CCc1ccccc1)c1ccc(Oc2ccccc2)cc1)N(CC(=O)O)C(=O)[C@H]1OC(C(=O)O)(C(=O)O)O[C@H]1C(=O)O` (relative stereo) [Example 23 (4S*, 5R*)-isomer, (4S*,5R*)-4-[N-(carboxymethyl)-N-{(1R,2R)-1-methyl-2-(4-phenoxyphenyl)-4-phenylbutyl}carbamoyl]-1,3-dioxolane-2,2,5-tricarboxylic acid]: 0.075 nM and 2000 nM.
The matching figures for `COc1cc(C(CCc2ccccc2)C(C)N(CC(=O)O)C(=O)[C@@H]2COC(C(=O)O)(C(=O)O)O2)ccc1Oc1ccccc1` (single isomer, unassigned) [Example 31]: 0.22 nM and 550 nM.
As to `CC(C(CCc1ccccc1)c1ccc(Oc2ccccc2)c(O)c1)N(CC(=O)O)C(=O)[C@@H]1COC(C(=O)O)(C(=O)O)O1` (single isomer, unassigned) [Example 32], the IC50 in test [1] was 0.2 nM; in test [2] it was 590 nM.
Take `C[C@H]([C@H](CCc1ccccc1)c1ccc(Oc2ccccc2)cc1)N(CC(=O)O)C(=O)[C@@H]1COC(C(=O)O)(C(=O)O)O1` [Example 9, (4S)-4-[N-(carboxymethyl)-N-{(1R,2R)-1-methyl-2-(4-phenoxyphenyl)-4-phenylbutyl}carbamoyl]-1,3-dioxolane-2,2-dicarboxylic acid]: the figures for the IC50 in test [1] and in test [2] were 0.16 nM and 240 nM, respectively. In addition, the “Growth inhibition (tumor weight)” value was 67% in test [3] (20 mg/kg/injection intraperitoneal), 80% in test [3] (40 mg/kg/injection intraperitoneal), 90% in test [3] (80 mg/kg/injection intraperitoneal) and 98% in test [3] (160 mg/kg/injection intraperitoneal). In addition, the “Weight of tumor, Average ± standard deviation” value in test [3] (20 mg/kg/injection intraperitoneal, * 5% (u test)) is 0.024 ± 0.018 g; in test [3] (40 mg/kg/injection intraperitoneal, ** 1% (u test)), 0.015 ± 0.013 g; in test [3] (80 mg/kg/injection intraperitoneal, ** 1% (u test)), 0.008 ± 0.006 g; in test [3] (160 mg/kg/injection intraperitoneal, ** 1% (u test)), 0.002 ± 0.001 g.
`C[C@H]([C@H](CCc1ccccc1)c1ccc(Oc2ccccc2)cc1)N(CC(=O)O)C(=O)[C@@H]1OC(C(=O)O)(C(=O)O)O[C@H]1C(=O)O` [Example 21, (4R,5R)-4-[N-(carboxymethyl)-N-{(1R,2R)-1-methyl-2-(4-phenoxyphenyl)-4-phenylbutyl}carbamoyl]-1,3-dioxolane-2,2,5-tricarboxylic acid]: the IC50 worked out at 0.098 nM in test [1] and 2100 nM in test [2].
`C[C@H]([C@H](CCc1ccccc1)c1ccc(Oc2ccccc2)cc1)N(CC(=O)O)C(=O)[C@H]1OC(C(=O)O)(C(=O)O)O[C@@H]1C(=O)O` [Example 22, (4S,5S)-4-[N-(carboxymethyl)-N-{(1R,2R)-1-methyl-2-(4-phenoxyphenyl)-4-phenylbutyl}carbamoyl]-1,3-dioxolane-2,2,5-tricarboxylic acid]: the IC50 was found to be 0.095 nM in test [1] and 1900 nM in test [2]. Moreover, the “Growth inhibition (tumor volume)” value in test [4] (setting [5]) turned out to be 75%; in test [4] (setting [6]), 92%; in test [4] (setting [7]), 99%. The entries for the “Volume of tumor, Average ± standard deviation” value in test [4] (setting [5]), in test [4] (setting [6]) and in test [4] (setting [7]) were 0.164 ± 0.073 cm^3, 0.052 ± 0.030 cm^3 and 0.010 ± 0.009 cm^3, respectively.

The values are drawn from patent US6011174A, “Cyclic amic acid derivatives” (Banyu Pharmaceutical Co., Ltd., priority 1996, dated 2000).
